Earlier results in patent US10561704B2, “Compositions and methods for treating neuropsychiatric disorders using an endothelin-B receptor agonist” (MIDWESTERN UNIVERSITY, priority 2013, dated 2020).
Where a SMILES comes first, the peptide text is derived from it.

Tested on: Aβ treated rats
Details: Briyal et al., 2011; cited from earlier work

Structure (SMILES) | Aβ induced oxidative stress and cognitive deficits
CC(C)C[C@@H]1NC(=O)[C@@H](C(C)C)NC(=O)[C@@H]2CCCN2C(=O)[C@@H](CC(=O)O)NC(=O)[C@@H](Cc2c[nH]c3ccccc23)NC1=O [BQ123] (HELM PEPTIDE1{L.[dW].[dD].P.[dV]}$PEPTIDE1,PEPTIDE1,1:R1-5:R2$$$V2.0) | prevent
Cc1noc(NS(=O)(=O)c2cccc3c(N(C)C)cccc23)c1C [BMS182874] | prevent
